The target of this assay is T1, Recombinant human renin (Homo sapiens, UniProt P00797).
T1 construct: isolate the active form (residues 67-406); made in house; host or cells: FreeStyle 293-F cells, transient expression of pcDNA3.1(+)/hREN
T1 sequence (P00797 67-406): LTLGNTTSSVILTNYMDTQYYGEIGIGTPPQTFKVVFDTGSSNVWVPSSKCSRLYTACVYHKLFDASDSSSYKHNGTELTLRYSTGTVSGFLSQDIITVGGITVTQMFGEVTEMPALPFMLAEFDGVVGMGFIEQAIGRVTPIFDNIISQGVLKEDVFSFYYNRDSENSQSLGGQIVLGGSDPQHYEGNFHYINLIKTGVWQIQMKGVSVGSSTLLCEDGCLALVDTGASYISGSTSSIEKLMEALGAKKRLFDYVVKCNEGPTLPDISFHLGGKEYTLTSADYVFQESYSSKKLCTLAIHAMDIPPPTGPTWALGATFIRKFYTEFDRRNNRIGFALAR
The assay can be described thus: In vitro enzymatic activity assay of renin inhibitors (fluorescence, QXL520/HiLyteFluo488 peptide substrate). In kind it is biochemical. The following applies: recombinant human renin 3 nM, 1 μM substrate, pre-incubated 10 minutes at 37° C., incubation one hour, pH 7.4, 5% DMSO; read-out: IC50 of Exemplified Compounds Against Renin.

Usually IC50 stands for the concentration at which inhibition is half-maximal.

With `Cc1ccccc1-n1c(-c2ccccc2)c(C(=O)N2CCNCC2)n(Cc2cccc(Oc3ccccc3)c2)c1=O` [Example 142, 1-(3-Phenoxybenzyl)-4-phenyl-5-(piperazine-1-carbonyl)-3-o-tolyl-1H-imidazol-2(3H)-one], the IC50 was in the range of 100 to 500 nM.

With `COc1cccc(Cn2c(C(=O)N3CCNCC3)c(-c3ccccc3)n(-c3ccccc3C)c2=O)c1` [Example 143, 1-(3-Methoxybenzyl)-4-phenyl-5-(piperazine-1-carbonyl)-3-o-tolyl-1H-imidazol-2(3H)-one], the IC50 was 100 to 500 nM.

For the compound `Cc1ccccc1-n1c(-c2ccccc2)c(C(=O)N2CCNCC2)n(Cc2ccc(F)c(F)c2)c1=O` [Example 144, 1-(3,4-Difluorobenzyl)-4-phenyl-5-(piperazine-1-carbonyl)-3-o-tolyl-1H-imidazol-2(3H)-one], the half-inhibitory concentration (IC50) was in the range of 500 to 1000 nM.

Turning to `C=CCn1c(C(=O)N2CCNCC2)c(-c2ccccc2)n(-c2ccccc2OC)c1=O` [Example 145, 1-Allyl-3-(2-methoxyphenyl)-4-phenyl-5-(piperazine-1-carbonyl)-1H-imidazol-2(3H)-one], the IC50 is greater than 1000 nM.

As for `COc1ccccc1-n1c(-c2ccccc2)c(C(=O)N2CCNCC2)n(Cc2cccc(Oc3ccccc3)c2)c1=O` [Example 146, 1-(2-Methoxyphenyl)-3-(3-phenoxybenzyl)-5-phenyl-4-(piperazine-1-carbonyl)-1H-imidazol-2(3H)-one], the concentration for half-maximal inhibition (IC50) lay in the range of 100 to 500 nM.

`COc1cccc(Cn2c(C(=O)N3CCNCC3)c(-c3ccccc3)n(-c3ccccc3OC)c2=O)c1` [Example 147, 1-(3-Methoxybenzyl)-3-(2-methoxyphenyl)-4-phenyl-5-(piperazine-1-carbonyl)-1H-imidazol-2(3H)-one]: the concentration for half-maximal inhibition (IC50) was greater than 1000 nM.

Regarding `COc1ccccc1-n1c(-c2ccccc2)c(C(=O)N2CCNCC2)n(Cc2ccc(F)c(F)c2)c1=O` [Example 148, 1-(3,4-Difluorobenzyl)-3-(2-methoxyphenyl)-4-phenyl-5-(piperazine-1-carbonyl)-1H-imidazol-2(3H)-one], the half-inhibitory concentration (IC50) is greater than 1000 nM.

For `Cc1ccccc1-n1c(-c2ccccc2)c(C(=O)N2CCNCC2)n(Cc2cccc(OCCOc3ccccc3)c2)c1=O` [Example 149, 1-(3-(2-Phenoxyethoxy)benzyl)-4-phenyl-5-(piperazine-1-carbonyl)-3-o-tolyl-1H-imidazol-2(3H)-one], the IC50 was 100 to 500 nM.

Consider `C=CCn1c(C(=O)N2CCNCC2)c(-c2ccccc2)n(-c2cccc(N3CCOCC3)c2)c1=O` [Example 150, 1-Allyl-3-(3-morpholinophenyl)-4-phenyl-5-(piperazine-1-carbonyl)-1H-imidazol-2(3H)-one], for which the IC50 is greater than 1000 nM.

As to `COc1cccc(Cn2c(C(=O)N3CCNCC3)c(-c3ccccc3)n(-c3cccc(N4CCOCC4)c3)c2=O)c1` [Example 151, 1-(3-Methoxybenzyl)-3-(3-morpholinophenyl)-4-phenyl-5-(piperazine-1-carbonyl)-1H-imidazol-2(3H)-one], the half-maximal inhibitory concentration (IC50) fell in the range of 100 to 500 nM.

Take `O=C(c1c(-c2ccccc2)n([C@H]2CCCC[C@H]2O)c(=O)n1Cc1cccc(Oc2ccccc2)c1)N1CCNCC1` [Example 152, 1-((1S,2R)-2-Hydroxycyclohexyl)-3-(3-phenoxybenzyl)-5-phenyl-4-(piperazine-1-carbonyl)-1H-imidazol-2(3H)-one]: the half-inhibitory concentration (IC50) lay in the range of 500 to 1000 nM.

With `COc1cccc(Cn2c(C(=O)N3CCNCC3)c(-c3ccccc3)n([C@H]3CCCC[C@H]3O)c2=O)c1` [Example 153, 1-((1S,2R)-2-Hydroxycyclohexyl)-3-(3-methoxybenzyl)-5-phenyl-4-(piperazine-1-carbonyl)-1H-imidazol-2(3H)-one], the IC50 is greater than 1000 nM.

For the compound `O=C(c1c(-c2ccccc2)n([C@H]2CCCC[C@H]2O)c(=O)n1Cc1ccc(F)c(F)c1)N1CCNCC1` [Example 154, 1-(3,4-Difluorobenzyl)-3-((1S,2R)-2-hydroxycyclohexyl)-4-phenyl-5-(piperazine-1-carbonyl)-1H-imidazol-2(3H)-one], the IC50 is greater than 1000 nM.

The values above are taken from US8148367B2 (Takeda Pharmaceutical Company Limited, priority 2008, dated 2012).
